Laboratory results: patent US20260258035A1, “FIVE-MEMBERED AND SIX-MEMBERED NITROGEN-CONTAINING COMPOUND, AND INTERMEDIATE, PREPARATION METHOD AND USE THEREOF” (HANGZHOU SYNRX THERAPEUTICS BIOMEDICAL TECHNOLOGY CO., LTD., priority 2022, published 2026)
Values after ≈ are worked out from the molar mass of the structure shown. Where two headings read alike, the source gives them in different places.

Legend:
[1] = tested on: Human breast squamous carcinoma cells HCC1806; test: Cell function assay (In-Cell Western, PAR/pADPr after MMS); format: cell-based; conditions: read-out: IC50 (nM) in cell function assay
Summary of the method: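 HCC1806 cells adhered 24 h at 37 °C, 5% CO2, then were pretreated 1 h with compound (30000 nM down to 1 nM, plus 0 nM) or DMSO. MMS was then added at 0.5 mM final for 1 h before In-Cell Western detection of PAR/pADPr.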

HCC1806 = test: Cell viability assay (CellTiter-Glo); format: cell-based, Human; conditions: HCC1806, 7 days, CellTiter-Glo, read-out: IC50 (nM) in cell viability assay
[2] = Solubility assay (FaSSGF / FaSSIF); format: physicochemical; conditions: kinetic from dmso stock, 2 h at 25° C.
Experimental: 1). Preparation of Solutions:
The FaSSGF solution was prepared as follows: • a) preparation of FaSSGF buffer: dissolve 2.0 g of NaCl as the raw material in about 0.9 L of purified water; • b) adjustment of the pH of the buffer: adjust the pH of the buffer to 1.6 with 1N HCL, and replenish the buffer with purified water to the volume of 1 L; and • c) preparation of FaSSGF solution by addition of FaSSGF powder: add 0.06 g of the FaSSGF powder to about 0.5 L of the buffer, stir until the powder was completely dissolved, and make up for the volume (1 L) with the buffer.
The FaSSIF solution was prepared as follows: • a) preparation of FaSSIF buffer: dissolve 0.42 g of NaOH, 3.44 g of anhydrous NaH2PO4, and 6.19 g of NaCl as raw materials in about 0.9 L of purified water; • b) adjustment the pH of the buffer: adjust the pH of the buffer to 6.5 with 1 N NaOH or 1 N HCL, and replenish the buffer with purified water to the volume of 1 L; and • c) preparation of FaSSIF solution by addition of FaSSIF powder: add 2.24 g of the FaSSIF powder to about 0.5 L of the buffer, stir until the powder was completely dissolved, and make up for the volume (1 L) with the buffer.
2). Preparation of the Solution of Control Compound:
The control compound was weighed and dissolved in DMSO to 10 mM to obtain a stock solution.
3) Preparation of the Solution of Compound to be Tested:
The compound to be tested was formulated into a 10 mM DMSO stock solution.
4) Preparation of Internal Standard Solution:
a) The internal standard was weighed and dissolved in DMSO to 10 mM to obtain an internal standard stock solution (ISTD stock solution).
b) The internal standard stock solution was diluted to 500 nM (Tolbutamide) with an ACN:methano mixture (volume ratio: 1:1) to obtain a quenching solution.
a) The FaSSGF solution at pH 1.6 and the FaSSIF solution at pH 6.5 were pre-warmed; and then, the compound was injected into the buffer.
Once done, the samples were centrifuged at 12,000 rpm for 10 min, and the supernatant was transferred to a new tube. The supernatant was diluted 10-fold and 100-fold with the FaSSGF solution at pH 1.6 or the FaSSIIF solution at pH 6.5. 20 μL of each sample (1×, 10×, 100× and standard curve) was added to 500 μL of the IS solution. The resulting mixture was vortexed vigorously for 1 min and centrifuged at 4,500 rpm for 15 min at 4° C. 150 μL of the supernatant was transferred for LC-MS/MS sample analysis.

[3] = HCC1806, In-Cell Western, MMS treatment
[4] = HCC1806, compound 1 h then 0.5 mM MMS 1 h, PAR/pADPr antibody, In-Cell Western
[5] = fassgf or other biorelevant, FaSSGF solution pH 1.6, 100 μM from DMSO stock, read-out: FaSSGF solubility
[6] = FaSSIF solution pH 6.5, 100 μM from DMSO stock, read-out: FaSSIF solubility

## CC(C)C(=O)N1CCN(c2cc(S(=O)(=O)NC3(C#N)CC3)cn3c(-c4nnc(C(F)(F)F)s4)ncc23)CC1 [Example 167, N-(1-cyanocyclopropyl)-8-(4-isobutyrylpiperazin-1-yl)-3-(5-(trifluoromethyl)-1,3,4-thiadiazol-2-yl)imidazo[1,5-a]pyridine-6-sulfonamide]
[1]; [3]
  IC50: 6.34 nM
[1]; [4]
  IC50: < 100 nM
HCC1806
  IC50: 290 nM
HCC1806; Homo sapiens, HCC1806, 168 h
  IC50: < 500 nM
[2]; [5]
  solubility at 2 h: 57.5 µM (≈ 32.7 µg/mL)
[2]; [6]
  solubility at 2 h: 96.5 µM (≈ 54.9 µg/mL)

## CC(C)C(=O)N1CCN(c2cc(S(=O)(=O)NC3(C#N)CC3)cn3c(-c4nnc(C(F)F)s4)ncc23)CC1 [Example 32, N-(1-cyanocyclopropyl)-3-(5-(difluoromethyl)-1,3,4-thiadiazol-2-yl)-8-(4-isobutyrylpiperazin-1-yl)imidazo[1,5-a]pyridine-6-sulfonamide]
[1]; [3]
  IC50: 10.8 nM
[1]; [4]
  IC50: < 100 nM
[2]; [5]
  solubility at 2 h: 0.9 µM (≈ 0.496 µg/mL)
[2]; [6]
  solubility at 2 h: 3.18 µM (≈ 1.75 µg/mL)
